As usually defined, the melting point is the temperature, or range, at which the solid turns liquid. Turning to `CCC[C@H](NC(=O)[C@@H](O)C(C)C)C(=O)Nc1ncc(-c2ccc(OCC)cc2COc2ccccc2)s1` [compound 53, (2S)—N-{5-[4-ethoxy-2-(phenoxymethyl)phenyl]-1,3-thiazol-2-yl}-2-{[(2S)-2-hydroxy-3-methylbutanoyl]amino}pentanamide], the melting point is 107.8 °C.

The molecule `CCC[C@H](NC(=O)[C@@H](O)C(C)(C)C)C(=O)Nc1ncc(-c2ccccc2COC(C)C)s1` [compound 11, (2S)-2-{[(2S)-2-hydroxy-3,3-dimethylbutanoyl]amino}-N-{5-[2-(isopropoxymethyl)phenyl]-1,3-thiazol-2-yl}pentanamide] gave a melting point of 63 °C.

For the molecule `CCC[C@H](NC(=O)[C@@H](O)C(C)(C)C)C(=O)Nc1ncc(-c2ccccc2COc2ccccc2C)s1` [compound 36, (2S)-2-{[(2S)-2-hydroxy-3,3-dimethylbutanoyl]amino}-N-(5-{2-[(2-methylphenoxy)methyl]phenyl}-1,3-thiazol-2-yl}pentanamide], the melting point came out at 96.5 °C.

In turn, `CCC[C@H](NC(=O)[C@@H](O)C(C)C)C(=O)Nc1ncc(-c2ccc(OC)cc2COc2ccccc2)s1` [compound 49, (2S)-2-{[(2S)-2-hydroxy-3-methylbutanoyl]amino}-N-{5-[4-methoxy-2-(phenoxymethyl)phenyl]-1,3-thiazol-2-yl}pentanamide] gave a melting point of 159.5 °C.

Take `CCC[C@H](NC(=O)[C@@H](O)C(C)(C)C)C(=O)Nc1ncc(-c2ccccc2COc2cccc(C#N)c2)s1` [compound 61, (2S)—N-(5-{2-[(3-cyanophenoxy)methyl]phenyl}-1,3-thiazol-2-yl)-2-{[(2S)-2-hydroxy-3,3-dimethylbutanoyl]amino}pentanamide]: the melting point turned out to be 162.6 °C.

In the case of `CCC[C@H](NC(=O)[C@@H](O)C(C)(C)C)C(=O)Nc1ncc(-c2ccccc2COc2cccc(OC(F)(F)F)c2)s1` [compound 17, (2S)-2-{[(2S)-2-hydroxy-3,3-dimethylbutanoyl]amino}-N-[5-(2-{[3-(trifluoromethoxy)phenoxy]methyl}phenyl)-1,3-thiazol-2-yl]pentanamide], the melting point was found to be 114 °C.

As to `CCC[C@H](NC(=O)[C@@H](O)C(C)(C)C)C(=O)Nc1ncc(-c2ccccc2COc2ccc(C)c(C)c2)s1` [compound 27, (2S)—N-(5-{2-[(3,4-dimethylphenoxy)methyl]phenyl}-1,3-thiazol-2-yl)-2-{[(2S)-2-hydroxy-3,3-dimethylbutanoyl]amino}pentanamide], the melting point stood at 89 °C.

`CCC[C@H](NC(=O)[C@@H](O)C(C)(C)C)C(=O)Nc1ncc(-c2ccccc2COc2ccc(OC)c(OC)c2)s1` [compound 30, (2S)—N-(5-{2-[(3,4-dimethoxyphenoxy)methyl]phenyl}-1,3-thiazol-2-yl)-2-{[(2S)-2-hydroxy-3,3-dimethylbutanoyl]amino}pentanamide] showed a melting point of 81.5 °C.

For the molecule `CCC[C@H](NC(=O)[C@@H](O)C(C)(C)C)C(=O)Nc1ncc(-c2ccccc2COc2ccc(Cl)c(C)c2)s1` [compound 72, (2S)—N-(5-{2-[(4-chloro-3-methylphenoxy)methyl]phenyl}-1,3-thiazol-2-yl)-2-{[(2S)-2-hydroxy-3,3-dimethylbutanoyl]amino}pentanamide], the melting point came out at 83.4 °C.

The molecule `CCC[C@H](NC(=O)[C@@H](O)C(C)(C)C)C(=O)Nc1ncc(-c2ccccc2COc2cc(C)ccc2Cl)s1` [compound 67, (2S)—N-(5-{2-[(2-chloro-5-methylphenoxy)methyl]phenyl}-1,3-thiazol-2-yl)-2-{[(2S)-2-hydroxy-3,3-dimethylbutanoyl]amino}pentanamide] showed a melting point of 82 °C.

Take `CCC[C@H](NC(=O)[C@@H](O)C(C)(C)C)C(=O)Nc1ncc(-c2ccccc2COc2cccc(F)c2)s1` [compound 62, (2S)—N-(5-{2-[(3-fluorophenoxy)methyl]phenyl}-1,3-thiazol-2-yl)-2-{[(2S)-2-hydroxy-3,3-dimethylbutanoyl]amino}pentanamide]: the melting point is 160.2 °C.

Turning to `CCC[C@H](NC(=O)C(O)C(C)(C)C)C(=O)Nc1ncc(-c2ccccc2COc2c(Cl)cccc2Cl)s1` (stereo partly drawn) [compound 41, (2S)—N-(5-{2-[(2,6-dichlorophenoxy)methyl]phenyl}-1,3-thiazol-2-yl)-2-[(2-hydroxy-3,3-dimethylbutanoyl)amino]pentanamide], the melting point was 126 °C.

The molecule `CCC[C@H](NC(=O)[C@@H](O)CC(C)C)C(=O)Nc1ncc(-c2ccccc2COC2CCCCC2)s1` [compound 51, (2S)—N-((1S)-1-{[(5-{2-[(cyclohexyloxy)methyl]phenyl}-1,3-thiazol-2-yl)amino]carbonyl}butyl)-2-hydroxy-4-methylpentanamide] gave a melting point of 158 °C.

Turning to `CCC[C@H](NC(=O)[C@@H](O)C(CC)CC)C(=O)Nc1ncc(-c2ccccc2COc2ccccc2)s1` [Compound No. 43, (2S)-3-ethyl-2-hydroxy-N-{(1S)-1-[({5-[2-(phenoxymethyl)phenyl]-1,3-thiazol-2-yl}amino)carbonyl]butyl}pentanamide], the melting point is 122.5 °C.

For the molecule `CCC[C@H](NC(=O)[C@@H](O)C(C)(C)C)C(=O)Nc1ncc(-c2ccccc2COc2c(OC)cccc2OC)s1` [compound 31, (2S)—N-(5-{2-[(2,6-dimethoxyphenoxy)methyl]phenyl}-1,3-thiazol-2-yl)-2-{[(2S)-2-hydroxy-3,3-dimethylbutanoyl]amino}pentanamide], the melting point came to 69.5 °C.

Molecule `CCC[C@H](NC(=O)[C@@H](O)C(C)(C)C)C(=O)Nc1ncc(-c2ccc(Cl)cc2COc2ccccc2)s1` [compound 47, (2S)—N-{5-[4-chloro-2-(phenoxymethyl)phenyl]-1,3-thiazol-2-yl}-2-{[(2S)-2-hydroxy-3,3-dimethylbutanoyl]amino}pentanamide] had a melting point of 93.5 °C.

In turn, `CCC[C@H](NC(=O)[C@@H](O)C(C)C)C(=O)Nc1ncc(-c2ccccc2COc2ccccc2)s1` [compound 37, (2S)-2-{[(2S)-2-hydroxy-3-methylbutanoyl]amino}-N-{5-[2-(phenoxymethyl)phenyl]-1,3-thiazol-2-yl}pentanamide] came in with a melting point of 141 °C.

With `CCC[C@H](NC(=O)[C@@H](O)C(C)C)C(=O)Nc1ncc(-c2ccc(C)cc2COc2ccccc2)s1` [compound 65, (2S)-2-{[(2S)-2-hydroxy-3-methylbutanoyl]amino}-N-{5-[4-methyl-2-(phenoxymethyl)phenyl]-1,3-thiazol-2-yl}pentanamide], the melting point is 135.5 °C.

`CCC[C@H](NC(=O)[C@@H](O)C(C)(C)C)C(=O)Nc1ncc(-c2ccc(OCC)cc2COc2ccccc2)s1` [compound 52, (2S)—N-{5-[4-ethoxy-2-(phenoxymethyl)phenyl]-1,3-thiazol-2-yl}-2-{[(2S)-2-hydroxy-3,3-dimethylbutanoyl]amino}pentanamide] displayed a melting point of 81 °C.

`CCC[C@H](NC(=O)[C@@H](O)C(C)C)C(=O)Nc1ncc(-c2cc(C)ccc2COc2ccccc2)s1` [compound 60, (2S)-2-{[(2S)-2-hydroxy-3-methylbutanoyl]amino}-N-{5-[5-methyl-2-(phenoxymethyl)phenyl]-1,3-thiazol-2-yl}pentanamide] had a melting point of 125.5 °C.

With `CCC[C@H](NC(=O)C(O)C(C)(C)C)C(=O)Nc1ncc(-c2ccccc2COc2ccccc2OCC)s1` (stereo partly drawn) [compound 39, (2S)—N-(5-{2-[(2-ethoxyphenoxy)methyl]phenyl}-1,3-thiazol-2-yl)-2-[(2-hydroxy-3,3-dimethylbutanoyl)amino]pentanamide], the melting point was 88 °C.

`CCC[C@H](NC(=O)[C@@H](O)C(C)(C)C)C(=O)Nc1ncc(-c2ccccc2COc2cccc(Cl)c2Cl)s1` [compound 73, (2S)—N-(5-{2-[(2,3-dichlorophenoxy)methyl]phenyl}-1,3-thiazol-2-yl)-2-{[(2S)-2-hydroxy-3,3-dimethylbutanoyl]amino}pentanamide] showed a melting point of 71.1 °C.

`CCC[C@H](NC(=O)CC(C)(C)C)C(=O)Nc1ncc(-c2ccccc2COC(C)C)s1` [compound 13, (2S)-2-[(3,3-dimethylbutanoyl)amino]-N-{5-[2-(isopropoxymethyl)phenyl]-1,3-thiazol-2-yl}pentanamide] displayed a melting point of 77 °C.

`CCC[C@H](NC(=O)[C@@H](O)C(C)C)C(=O)Nc1ncc(-c2cc(F)ccc2COc2ccccc2)s1` [compound 56, (2S)—N-{5-[5-fluoro-2-(phenoxymethyl)phenyl]-1,3-thiazol-2-yl}-2-{[(2S)-2-hydroxy-3-methylbutanoyl]amino}pentanamide] registered a melting point of 61.4 °C.

With `CCC[C@H](NC(=O)[C@@H](O)C(C)(C)C)C(=O)Nc1ncc(-c2ccc(F)cc2COc2ccccc2)s1` [compound 48, (2S)—N-{5-[4-fluoro-2-(phenoxymethyl)phenyl]-1,3-thiazol-2-yl}-2-{[(2S)-2-hydroxy-3,3-dimethylbutanoyl]amino}pentanamide], the melting point was found to be 75.5 °C.

`CCC[C@H](NC(=O)[C@@H](O)C(C)(C)C)C(=O)Nc1ncc(-c2ccccc2COc2cccc(C)c2C)s1` [compound 26, (2S)—N-(5-{2-[(2,3-dimethylphenoxy)methyl]phenyl}-1,3-thiazol-2-yl)-2-{[(2S)-2-hydroxy-3,3-dimethylbutanoyl]amino}pentanamide] showed a melting point of 88 °C.

Consider `CCC[C@@H](NC(=O)[C@@H](O)C(C)(C)C)C(=O)Nc1ncc(-c2ccccc2COc2ccccc2)s1` [compound 35, (2R)-2-{[(2S)-2-hydroxy-3,3-dimethylbutanoyl]amino}-N-{5-[2-(phenoxymethyl)phenyl]-1,3-thiazol-2-yl}pentanamide], for which the melting point was found to be 78.5 °C.

`CCC[C@H](NC(=O)[C@@H](O)C(C)(C)C)C(=O)Nc1nc(C)c(-c2ccccc2COc2ccccc2)s1` [compound 34, (2S)-2-{[(2S)-2-hydroxy-3,3-dimethylbutanoyl]amino}-N-{4-methyl-5-[2-(phenoxymethyl)phenyl]-1,3-thiazol-2-yl}pentanamide] came in with a melting point of 99 °C.

Take `CCC[C@H](NC(=O)[C@@H](O)C(C)(C)C)C(=O)Nc1ncc(-c2ccccc2COc2cccc(Cl)c2)s1` [compound 29, (2S)—N-(5-{2-[(3-chlorophenoxy)methyl]phenyl}-1,3-thiazol-2-yl)-2-{[(2S)-2-hydroxy-3,3-dimethylbutanoyl]amino}pentanamide]: the melting point turned out to be 169 °C.

The values above are taken from patent US7563903B2, “Acylaminothiazole derivatives, their preparation and their therapeutic use” (Sanofi-Aventis, priority 2003, dated 2009).
